Where two headings read alike, the source gives them in different places. Starred links: 1 amine or outer side, 2 acyl side, 3 side chain; linkers in the order of their positions; H or OH if unused. Non-standard residues stand in square brackets, D forms with d. Residues, ends and D or L forms follow the SMILES beside them. Groups on a side chain read outwards from the residue. No end group written: not given here. *: point of attachment. C20 diacid = O=C(O)CCCCCCCCCCCCCCCCCCC(=O)*; C18 diacid = O=C(O)CCCCCCCCCCCCCCCCC(=O)*; αMePhe(2-F) = C[C@](N)(Cc1ccccc1F)C(=O)O; γGlu = O=C(O)[C@H](CCC(=O)[*:2])N[*:1]; αMe4Pal = C[C@](N)(Cc1ccncc1)C(=O)O; αMeY = C[C@](N)(Cc1ccc(O)cc1)C(=O)O; 4Pal = N[C@@H](Cc1ccncc1)C(=O)O; αMeL = CC(C)C[C@](C)(N)C(=O)O; αMeS = C[C@](N)(CO)C(=O)O; Orn = NCCC[C@H](N)C(=O)O; AEEA = NCCOCCOCC(=O)O; Aib = CC(C)(N)C(=O)O
How the values were obtained:
Format in all cases: cell-based
[1] = molecular target: T1, hGLP-1R (Homo sapiens, UniProt P43220); assay: Functional cAMP activation in the presence of 0.1% casein (no HSA); conditions: read-out: Relative cAMP EC50, hGLP-1R;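 further: intracellular cAMP rise after 30 min at 37 °C read by HTRF, normalized between buffer only (0%) and maximal control ligand (100%), four-parameter variable-slope fit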
T1 sequence (P43220 24-463): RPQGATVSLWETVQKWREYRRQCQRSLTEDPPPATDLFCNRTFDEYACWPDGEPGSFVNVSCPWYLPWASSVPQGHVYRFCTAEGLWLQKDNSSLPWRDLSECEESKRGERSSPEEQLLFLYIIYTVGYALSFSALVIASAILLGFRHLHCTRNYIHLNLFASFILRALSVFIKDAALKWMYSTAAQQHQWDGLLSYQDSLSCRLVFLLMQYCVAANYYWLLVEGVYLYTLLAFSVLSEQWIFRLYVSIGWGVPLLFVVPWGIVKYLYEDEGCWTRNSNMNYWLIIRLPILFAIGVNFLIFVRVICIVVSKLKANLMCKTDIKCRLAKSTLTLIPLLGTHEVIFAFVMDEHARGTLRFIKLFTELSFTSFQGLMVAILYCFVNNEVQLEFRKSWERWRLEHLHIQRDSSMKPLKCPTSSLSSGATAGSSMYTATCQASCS

[2] = molecular target: T2, hGIPR (Homo sapiens, UniProt P48546); assay: Functional cAMP activity in the presence of 1% HSA; conditions: read-out: cAMP Rel EC50, hGIPR
T2 sequence (P48546 22-466): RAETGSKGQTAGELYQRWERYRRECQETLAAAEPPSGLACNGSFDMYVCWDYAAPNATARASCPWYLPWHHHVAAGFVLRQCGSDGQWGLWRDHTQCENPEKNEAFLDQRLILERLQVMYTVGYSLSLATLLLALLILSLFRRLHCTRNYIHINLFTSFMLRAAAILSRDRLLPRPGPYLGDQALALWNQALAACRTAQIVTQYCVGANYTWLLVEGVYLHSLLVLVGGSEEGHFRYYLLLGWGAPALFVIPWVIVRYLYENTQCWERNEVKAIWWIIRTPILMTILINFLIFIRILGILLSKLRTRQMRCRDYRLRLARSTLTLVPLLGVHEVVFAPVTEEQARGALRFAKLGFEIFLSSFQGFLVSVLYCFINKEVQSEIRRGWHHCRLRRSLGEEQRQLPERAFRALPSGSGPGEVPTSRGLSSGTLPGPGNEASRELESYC

[3] = molecular target: T1, hGLP-1R; assay: Functional cAMP activity in the presence of 1% HSA; conditions: read-out: cAMP Rel EC50, hGLP-1R
[4] = molecular target: human GcgR (Homo sapiens, UniProt P47871); assay: Functional cAMP activity in the presence of 1% HSA; conditions: read-out: cAMP Rel EC50, hGcgR
human GcgR, sequence (P47871 26-477): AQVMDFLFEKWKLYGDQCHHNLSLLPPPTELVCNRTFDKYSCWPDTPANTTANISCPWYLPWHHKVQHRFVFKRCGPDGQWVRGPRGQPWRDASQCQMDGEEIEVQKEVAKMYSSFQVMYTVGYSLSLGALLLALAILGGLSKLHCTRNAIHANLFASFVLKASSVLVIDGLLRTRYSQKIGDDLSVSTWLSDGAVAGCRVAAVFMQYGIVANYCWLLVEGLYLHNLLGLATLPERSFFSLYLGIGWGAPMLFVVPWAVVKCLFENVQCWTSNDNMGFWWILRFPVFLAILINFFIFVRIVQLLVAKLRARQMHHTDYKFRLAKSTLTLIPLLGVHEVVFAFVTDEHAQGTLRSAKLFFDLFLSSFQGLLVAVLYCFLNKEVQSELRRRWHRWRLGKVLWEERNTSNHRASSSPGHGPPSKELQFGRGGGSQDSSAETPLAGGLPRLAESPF

[5] = molecular target: T2, hGIPR; assay: Functional cAMP activation in the presence of 0.1% casein (no HSA); conditions: read-out: Relative cAMP EC50, hGIPR;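 on Relative cAMP EC50, hGIPR: intracellular cAMP rise after 30 min at 37 °C read by HTRF against a standard curve, scaled between buffer alone (0%) and top control ligand concentration (100%), four-parameter fit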;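 on Relative cAMP EC50, hGcgR: intracellular cAMP rise after 30 min at 37 °C, read by HTRF against a cAMP standard curve, scaled from buffer only (0%) to maximal control ligand response (100%)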
[6] = molecular target: hGcgR (Homo sapiens, UniProt P47871); assay: as above; conditions: read-out: Relative cAMP EC50, hGcgR;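 further: intracellular cAMP rise after 30 min at 37 °C, read by HTRF against a cAMP standard curve, scaled from buffer only (0%) to maximal control ligand response (100%)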
hGcgR, sequence (P47871 26-477): as above

[7] = in the presence of 0.1% casein (no HSA), geometric mean
[8] = 0.1% casein, no HSA, geometric mean

Molecule | EC50 [1, 7] [nM] | EC50 [2] [nM] | EC50 [3] [nM] | EC50 [4] [nM] | EC50 [5, 7] [nM] | EC50 [6, 7] [nM] | EC50 [1] [nM] | EC50 [5] [nM] | EC50 [6] [nM] | EC50 [1, 8] [nM] | EC50 [5, 8] [nM] | EC50 [6, 8] [nM]
CC[C@H](C)[C@H](NC(=O)[C@H](Cc1ccccc1)NC(=O)[C@H](CCCN)NC(=O)C(C)(C)NC(=O)[C@H](CCC(N)=O)NC(=O)[C@H](C)NC(=O)[C@H](CCCCNC(=O)COCCOCCNC(=O)CC[C@H](NC(=O)CCCCCCCCCCCCCCCCC(=O)O)C(=O)O)NC(=O)[C@H](CCCN)NC(=O)[C@H](CC(=O)O)NC(=O)[C@H](CC(C)C)NC(=O)[C@](C)(CC(C)C)NC(=O)[C@@H](NC(=O)[C@H](CO)NC(=O)[C@H](Cc1ccncc1)NC(=O)[C@H](CC(=O)O)NC(=O)[C@H](CO)NC(=O)[C@@H](NC(=O)[C@](C)(Cc1ccccc1F)NC(=O)[C@@H](NC(=O)CNC(=O)[C@H](CCC(N)=O)NC(=O)C(C)(C)NC(=O)[C@@H](N)Cc1ccc(O)cc1)[C@@H](C)O)[C@@H](C)O)[C@@H](C)CC)C(=O)N[C@H](CCC(=O)O)C(=O)N[C@@](C)(Cc1ccc(O)cc1)C(=O)N[C@@H](CC(C)C)C(=O)N[C@@H](CC(C)C)C(=O)N[C@@H](CCC(=O)O)C(=O)NCC(=O)NCC(=O)N1CCC[C@H]1C(=O)N[C@@H](CO)C(=O)N[C@@H](CO)C(=O)NCC(=O)N[C@@H](CCC(=O)O)C(=O)N1CCC[C@H]1C(=O)N1CCC[C@H]1C(=O)N1CCC[C@H]1C(=O)N[C@@H](CO)C(N)=O [Example 367] | 0.421 | 4.89 | 30.1 | 668 | 0.0215 | 7.95 |  |  |  |  |  | 
H-Y[Aib]QGTFTSDFS[Orn][αMeL]LDKK([AEEA-γGlu-C18 diacid])AQ[Aib]AFIEWLLEGGHSSGEPPPEGS-NH2 [Example 127] | 4.8 | 62.9 | 1000 | 1010 | 0.312 | 4.35 |  |  |  |  |  | 
H-Y[Aib]QGTFTSDFSK[αMeL]LDKK([AEEA-γGlu-C18 diacid])AQ[Aib]AFIEYLLEGGESSGAPPPSGS-NH2 [Example 146] | 2.73 | 74.6 | 678 | 463 | 0.362 | 2.04 |  |  |  |  |  | 
H-Y[Aib]QGTFTSD[4Pal]SQ[αMeL]LDKK([AEEA-γGlu-C18 diacid])AQ[αMe4Pal]AFIE[αMe4Pal]LIE[Aib]GPSSGAPPPSGTE-NH2 [Example 1116] | 4.63 | 10.8 | 198 | 364 | 0.134 | 8.2 |  |  |  |  |  | 
H-Y[Aib]QGT[αMePhe(2-F)]TSD[4Pal][αMeS]ILLD[Orn]K([γGlu-γGlu-C18 diacid])AQ[Aib][Orn]FI[dE]YLIEGGPSSGEPPPEGAEE-NH2 [Example 604] |  | 4.84 | 51 | 427 |  |  | 0.705 | 0.161 | 5.5 |  |  | 
H-Y[Aib]QGTFTSD[4Pal]SQ[αMeL]LD[Orn]K([AEEA-γGlu-C18 diacid])AQ[αMe4Pal]AFIEYLIA[Aib]GPSSGEPPPSGSEE-NH2 [Example 1095] | 1.17 | 8.73 | 159 | 337 | 0.065 | 2.75 |  |  |  |  |  | 
H-Y[Aib]QGTFTSD[4Pal]SQ[αMeL]LD[Orn]K([γGlu-γGlu-C18 diacid])AQ[αMe4Pal]QFIEYLIAGGPSSGAPPPSGSEE-NH2 [Example 1005] | 1.48 | 14.5 | 171 | 1670 | 0.152 | 9.46 |  |  |  |  |  | 
H-Y[Aib]QGT[αMePhe(2-F)]TSD[4Pal]SI[αMeL]LD[Orn]K([γGlu-γGlu-C18 diacid])AQ[αMe4Pal][Orn]FI[dE][αMeY]LIEGGPSSGEPPPEGE-NH2 [Example 683] |  | 0.492 | 14.3 | 137 |  |  | 0.214 | 0.00798 | 1.57 |  |  | 
H-Y[Aib]QGT[αMePhe(2-F)]TSD[4Pal][αMeS]I[αMeL]LD[Orn]K([AEEA-γGlu-C18 diacid])AA[Aib]EFI[dE][αMeY]LIEGGPSSGAPPPSG[dE]-NH2 [Example 721] |  | 1.19 | 27.1 | 183 |  |  | 0.233 | 0.00774 | 1.78 |  |  | 
H-Y[Aib]QGT[αMePhe(2-F)]TSD[4Pal]SI[αMeL]LD[Orn]K([AEEA-γGlu-C18 diacid])AQ[αMe4Pal][Orn]FI[dE][αMeY]LIEGGPSSGDPPPEGTE-NH2 [Example 731] |  | 1.27 | 27.4 | 291 |  |  | 0.267 | 0.0117 | 2.35 |  |  | 
Y[Aib]QGT[αMePhe(2-F)]TSD[4Pal]SI[αMeL]LD[Orn]K([AEEA-γGlu-C18 diacid])AQ[αMe4Pal]EFI[dE][αMeY]LIEGGPSSGAPPPSGE-NH2 [Example 614] |  | 0.597 | 33.2 | 724 |  |  | 0.251 | 0.0065 | 6.36 |  |  | 
H-Y[Aib]QGTFTSDYSI[αMeL]LDKQAAK([AEEA-AEEA-γGlu-C20 diacid])QFVEWLLA[Aib]GPSSGAPPPSEG-NH2 [Example 327] | 1.61 | 63.3 | 473 | 1400 | 0.312 | 3.04 |  |  |  |  |  | 
CC[C@H](C)[C@H](NC(=O)[C@H](Cc1ccccc1)NC(=O)[C@H](C)NC(=O)C(C)(C)NC(=O)[C@H](CCC(N)=O)NC(=O)[C@H](C)NC(=O)[C@H](CCCCNC(=O)COCCOCCNC(=O)COCCOCCNC(=O)CC[C@H](NC(=O)CCCCCCCCCCCCCCCCC(=O)O)C(=O)O)NC(=O)[C@H](CCCCN)NC(=O)[C@H](CC(=O)O)NC(=O)[C@H](CC(C)C)NC(=O)[C@H](CC(C)C)NC(=O)[C@@H](NC(=O)[C@](C)(CO)NC(=O)[C@H](Cc1ccc(O)cc1)NC(=O)[C@H](CC(=O)O)NC(=O)[C@H](CO)NC(=O)[C@@H](NC(=O)[C@](C)(Cc1ccccc1F)NC(=O)[C@@H](NC(=O)CNC(=O)[C@H](CCC(N)=O)NC(=O)C(C)(C)NC(=O)[C@@H](N)Cc1ccc(O)cc1)[C@@H](C)O)[C@@H](C)O)[C@@H](C)CC)C(=O)N[C@@H](CCC(=O)O)C(=O)N[C@@H](Cc1ccc(O)cc1)C(=O)N[C@@H](CC(C)C)C(=O)N[C@@H](CCC(=O)O)C(=O)N[C@@H](CCC(=O)O)C(=O)NCC(=O)NCC(=O)N1CCC[C@H]1C(=O)N[C@@H](CO)C(=O)N[C@@H](CO)C(=O)NCC(=O)N[C@@H](CCC(=O)O)C(=O)N1CCC[C@H]1C(=O)N1CCC[C@H]1C(=O)N1CCC[C@H]1C(=O)N[C@@H](CCC(=O)O)C(N)=O [Example 469] (H-Y[Aib]QGT[αMePhe(2-F)]TSDY[αMeS]ILLDKK([AEEA-AEEA-γGlu-C18 diacid])AQ[Aib]AFIEYLEEGGPSSGEPPPE-NH2) |  | 4.24 | 61.7 | 155 |  |  | 0.562 | 0.031 | 1.34 |  |  | 
H-Y[Aib]QGTFTSDFS[Orn][αMeL]LDKK([AEEA-AEEA-γGlu-C18 diacid])AQ[Aib]AFIEYLLE[dA]GPSSG[4Pal]PPPSGH-NH2 [Example 257] | 2.66 | 21 | 388 | 1210 | 0.135 | 7.36 |  |  |  |  |  | 
H-Y[Aib]QGT[αMePhe(2-F)]TSD[4Pal]SI[αMeL]LD[Orn]K([AEEA-γGlu-C18 diacid])AQ[αMe4Pal][Orn]FI[dE][αMeY]LIEGGPSSGDPPPEGTGE-NH2 [Example 732] |  | 1.26 | 27.2 | 327 |  |  | 0.268 | 0.0118 | 2.18 |  |  | 
H-Y[Aib]QGT[αMePhe(2-F)]TSD[4Pal][αMeS]I[αMeL]LD[Orn]K([AEEA-AEEA-γGlu-C18 diacid])AQ[αMe4Pal]EFI[dE][αMeY]LIEGGPSSGEPPPSGS-NH2 [Example 1208] |  | 0.786 | 44.8 | 451 |  |  |  |  |  | 0.526 | 0.00907 | 3.52
H-Y[Aib]QGT[αMePhe(2-F)]TSD[4Pal]SILLDKK([γGlu-γGlu-C18 diacid])AQ[Aib]AFIEYLEEGGPSSGAPPPSGSEE-NH2 [Example 610] |  | 7.02 | 130 | 536 |  |  | 1.66 | 0.133 | 5.75 |  |  | 
H-Y[Aib]QGT[αMePhe(2-F)]TSD[4Pal][αMeS]I[αMeL]LD[Orn]K([γGlu-γGlu-C18 diacid])AQ[Aib][Orn]FI[dE][αMeY]LTEGGPSSGEPPPSGTE-NH2 [Example 542] |  | 1.69 | 29.6 | 256 |  |  | 0.388 | 0.0336 | 5.03 |  |  | 
